From ChEMBL document CHEMBL6153027, “Recent report on indoles as a privileged anti-viral scaffold in drug discovery” (Eur J Med Chem, 2025) come the findings set out here.

A short description of series [1]: Inhibition of Influenza A virus H5N1 neuraminidase.
A further series relates to Human alphaherpesvirus 2. The experiment in a line: Antiviral activity against HSV-2 infected in African green monkey Vero cells assessed as reduction in virus-induced cytopathic effect incubated for 3 days by MTT assay. The format is functional, organism-based. The settings on record: Human alphaherpesvirus 2, Vero, 72 h. For orientation: Cytopathic effects are the visible damage that an infection or toxin causes in cultured cells.

The nature of series [2]: Toxicity in African green monkey Vero cells assessed as reduction in cell viability incubated for 3 days by MTT assay. The format is cell-based. The settings on record: chlorocebus sabaeus, time 3 day, read-out: TC50. Background: Tetrazolium assays rely on reduction of a dye to a coloured formazan, in cell work by metabolically active cells.
The subject of a further series is Zika virus. The experiment in a line: Antiviral activity against Zika virus infected in African green monkey Vero cells assessed as reduction in virus induced cell death. The format is functional, organism-based.
The test system of series [3] is SARS-CoV-2. The format is functional, organism-based, Vero E6. The conditions noted are these: Severe acute respiratory syndrome coronavirus 2, Vero C1008.
Series [4] can be described thus: Inhibition of Influenza A virus A/California/04/2009 (H1N1) domain of PA endonuclease expressed in Escherichia coli BL21 (DE3) cells.
For series [5], the target named is T1, Human immunodeficiency virus type 1 integrase (Human immunodeficiency virus 1, UniProt Q7ZJM1). The experiment in a line: Inhibition of HIV-1 integrase.
In series [6] the test system is Human immunodeficiency virus 1. Nature of the series: Antiviral activity against HIV-1 infected in human MT4 cells assessed as reduction in viral replication. The conditions noted are these: Human immunodeficiency virus 1, MT4. The format is functional, organism-based.
Another series deals with Influenza A virus. Nature of the series: Antiviral activity against Influenza virus […] (A/California/07/2009 pdm09) infected in human Calu-3 cells assessed as viral RNA measured after 3 days by RT-PCR assay. It counts as functional, organism-based. The settings on record: Calu-3, 72 h.
A further series has as its system Potato virus Y. The experiment in a line: Antiviral activity against Potato Virus Y. It counts as functional, organism-based.
The test system of the next series is Sindbis virus. The experiment in a line: Antiviral activity against Sindbis virus infected in African green monkey Vero cells assessed as reduction in virus induced cytopathic effect. The format is functional, organism-based.
Series [7] in a line: Cytotoxicity against African green monkey Vero cells assessed as reduction in cell viability measured after 72 hrs by MTT assay. It counts as toxicity, cell-based. The conditions noted are these: chlorocebus sabaeus.
A short description of series [8]: Inhibition of Zika virus NS5 RNA dependent RNA polymerase.
The subject of series [9] is SARS-CoV-2. It counts as functional, organism-based, Vero E6. The settings on record: Severe acute respiratory syndrome coronavirus 2, Vero C1008, 48 h.
For series [10], the system named is Human immunodeficiency virus 1. Nature of the series: Antiviral activity against wild type HIV-1 NL4-3 infected in human MT4 cells assessed as reduction in viral replication. The format is functional, organism-based. The settings on record: Human immunodeficiency virus 1, NL4-3, MT4.
The nature of series [11]: Inhibition of N-terminal SARS-CoV-2 Main protease using ESATLQSGLRKAK-QXL-NH2 as substrate incubated for 60 mins by FRET assay. Further details: species or system Severe acute respiratory syndrome coronavirus 2.
Series [12] is described as follows: Cytotoxicity against African green monkey Vero E6 cells assessed as reduction in cell viability measured for 3 days by CCK-8 assay. The settings on record: chlorocebus sabaeus, Vero E6 cells (Vero C1008); time 3 day. The format is toxicity, cell-based.
Series [13] deals with SARS-CoV-2. It counts as functional, organism-based. The conditions noted are these: Severe acute respiratory syndrome coronavirus 2, Wuhan-Hu-1, Vero C1008.
Series [14] has as its system Respiratory syncytial virus. Nature of the series: Antiviral activity against Respiratory syncytial virus. The settings on record: human respiratory syncytial virus. The format is functional, organism-based.
Series [15] concerns Vesicular stomatitis virus. Nature of the series: Antiviral activity against Vesicular stomatitis virus. It counts as functional, organism-based.
Another series deals with Tobacco mosaic virus. The experiment in a line: Antiviral activity against Tobacco mosaic virus. The format is functional, organism-based.
Series [16] has as its system Human immunodeficiency virus 1. The experiment in a line: Antiviral activity against HIV-1 IIIB infected in human C8166 cells assessed as reduction in viral replication. The format is functional, organism-based. The settings on record: Human immunodeficiency virus 1, IIIB.
The next series deals with C8166. Nature of the series: Cytotoxicity against human C8166 cells assessed as reduction in cell viability incubated for 3 days by MTT assay. It counts as functional. The conditions noted are these: C8166, 72 h, time 3 day.
Series [17] has as its system Respiratory syncytial virus. Nature of the series: Antiviral activity against RSV-A2 infected in human HEp-2 cells incubated for 4 days by Cell Titer Glo assay. The conditions noted are these: A2, HEp-2, 96 h. It counts as functional, organism-based. A general note: Cellular ATP, detected with luciferase, serves as a proxy for viable cell number.
The test system of series [18] is SARS-CoV-2. The format is functional, organism-based. The conditions noted are these: Severe acute respiratory syndrome coronavirus 2, Wuhan-Hu-1, Vero C1008. This is another data set of the same source.
In series [19] the test system is Respiratory syncytial virus. Nature of the series: Antiviral activity against RSV-A infected in human A549 cells at 0.01 MOI assessed as inhibition of virus induced cytopathic effect […] by MTT assay. It counts as functional, organism-based.
Series [20] deals with Venezuelan equine encephalitis virus. The experiment in a line: Antiviral activity against VEEV TC-83 infected in human U-87 MG cells assessed as reduction in viral replication. It counts as functional, organism-based. The conditions noted are these: TC-83, U-87 MG.
Series [21] has as its system SARS-CoV-2. It counts as functional, organism-based, Vero E6. The conditions noted are these: Severe acute respiratory syndrome coronavirus 2, Vero C1008, 48 h. The source holds these as a separate data set.
Series [22] deals with T1, Human immunodeficiency virus type 1 integrase. Nature of the series: Inhibition of recombinant HIV-1 integrase by strand transfer activity.
The next series concerns Human respirovirus 1. The experiment in a line: Antiviral activity against Human parainfluenza virus 1 infected in Vero cells assessed as reduction in viral replication at 10 ug/ml relative to control. It counts as functional. Details: scale not given: the % may be the effect or the level left. The conditions noted are these: dose 10 µg/ml.

≈ marks a conversion by molar mass, not a printed value. Bounds are passed on as bounds.

T1 sequence (Q7ZJM1 whole entry): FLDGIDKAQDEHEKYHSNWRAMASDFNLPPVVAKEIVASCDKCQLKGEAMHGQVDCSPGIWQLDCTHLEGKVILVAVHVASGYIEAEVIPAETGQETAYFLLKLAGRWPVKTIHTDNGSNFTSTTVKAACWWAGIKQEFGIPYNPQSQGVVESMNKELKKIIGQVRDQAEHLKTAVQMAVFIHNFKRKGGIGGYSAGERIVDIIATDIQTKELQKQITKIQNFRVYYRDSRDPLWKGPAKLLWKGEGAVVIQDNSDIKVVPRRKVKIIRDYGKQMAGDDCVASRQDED

Consider `COc1ccc2c3c([nH]c2c1)C(C)=NCC3` [HARMALINE], for which, in [1], the IC50 (commonly the concentration at which inhibition is half-maximal) came out at 3.42 µg/mL (≈ 16 µM).

On to `CCOC(=O)c1c(CSc2ccccc2)n(C)c2cc(Br)c(O)c(CN(C)C)c12` [UMIFENOVIR], for which, in the series on Human alphaherpesvirus 2, the IC50 came out at 4.77 µg/mL (≈ 9.99 µM). For the same compound, the CC50 at 72 h in series [2] stood at 32.3 µg/mL (≈ 67.7 µM). `O=C(NCC1CCNCC1)c1cc2ccc(-c3ccoc3)cc2[nH]1`: the IC50 in the series with Zika virus worked out at 0.37 µM. In series [1], `CC1=NCCc2c1[nH]c1ccccc21` returned an IC50 of 0.023 µg/mL (≈ 0.125 µM). For `CCS(=O)(=O)N(c1ccc(C(=O)/C=C2/C(=O)Nc3ccccc32)cc1)S(=O)(=O)CC`, in the series on SARS-CoV-2 [3], the IC50 came out at 3.42 µM. For `O=C1c2c(ccc(O)c2O)CN1Cc1ccc(O)cc1`, the IC50 in series [4] and in series [5] was 0.0075 µM in each case. The EC50 (in series [6]; with Influenza A virus) was approximately 4 µM each time. `O=C1C[C@@H]2OCC=C3CN4CC[C@]56c7ccccc7N1[C@H]5[C@H]2[C@H]3C[C@H]46.O=S(=O)(O)O` came in with an IC50 in [1] of 11.85 µg/mL. Consider `C#CCCn1ccc2c(C3=N[C@@H](C(C)C)CO3)cccc21`, for which, in the series with Potato virus Y, the EC50 (usually the concentration giving half of the maximal effect) came out at 256 µg/mL (≈ 913 µM). For the compound `NS(=O)(=O)c1ccc(NC(=S)N/N=C2\C(=O)Nc3ccc(OC(F)(F)F)cc32)cc1`, the EC50 with Sindbis virus turned out to be 2 µM.

Consider `CN1C(=O)/C(=N\NC(=S)Nc2ccc(S(N)(=O)=O)cc2)c2cc(OC(F)(F)F)ccc21`, for which the EC50 in the series with Sindbis virus is more than 20 µM. For the compound `CS(=O)(=O)Oc1ccc(C(=O)/C=C2/C(=O)Nc3ccccc32)cc1`, in the series on SARS-CoV-2 [3], the IC50 was 3.8 µM. The compound `CC1=NCCc2c1[nH]c1cc(O)ccc21` [HARMALOL] registered an IC50 in series [1] of 0.02 µg/mL (≈ 0.0999 µM). `O=C1C2Cc3ccccc3N2[C@@H](c2ccc(O)c(O)c2)N1Nc1ccc([N+](=O)[O-])cc1` (some centres not stated): in series [7], the CC50 at 72 h was more than 100 µM. The midpoint of inhibition in series [8], the IC50, lay at 8.52 µM. On to `O=C(NN1C(=O)CSC12CCCCC2)c1[nH]c2ccc(Cl)cc2c1-c1ccccc1`, for which the EC50 in the series on Sindbis virus amounted to 1.9 µM.

As to `CN1C(=O)/C(=N\NC(=S)Nc2ccc(S(N)(=O)=O)cc2)c2cc(F)ccc21`, the EC50 with Sindbis virus was more than 4 µM. `O=C(NCCc1ccc(N2CCOCC2)cc1)c1[nH]c2ccc(Cl)cc2c1CO`: half-maximal inhibition in the series with SARS-CoV-2 [9] (IC50) required 4.2 µM. Regarding `COP(=O)(c1cc(C)cc(OCC#N)c1)c1c(C(N)=O)[nH]c2ccc(Cl)cc12` (configuration not stated), in series [10], the EC50 was determined as 0.08 nM.

Take `CCCCCCCCCCCCCCCCCc1nnc(SCC(O)CO)n1/N=C/c1cn(Cc2ccccc2)c2ccccc12` (configuration not stated): the IC50 amounted to 112 µM in the series with SARS-CoV-2 [9] and 8.93 µM in series [11]. With `O=C(Oc1cncc(Cl)c1)c1cccc2c1CCN2`, the CC50 at 72 h in [12] was more than 100 µM. `O=C(NCC1CCNCC1)c1c[nH]c2cc(-c3ccoc3)c(-c3ccoc3)cc12`: the IC50 in the series with SARS-CoV-2 [13] came to 3.8 µM.

Regarding `Cc1ccc2c(c1)C(=O)C(=O)N2Cc1ccc2ccccc2c1`, the EC50 in series [14] and in series [15] was 6.8 µM in each case. In the case of `CCCCCCCCCCCCCCCCCc1nnc(SCCO)n1/N=C/c1cn(Cc2ccccc2)c2ccccc12`, the IC50 in the series on SARS-CoV-2 [9] was 87.6 µM; in [11], 8.7 µM. Regarding `COc1ccc([C@H]2N(Nc3ccccc3)C(=O)C3Cc4ccccc4N32)cc1O[Si](C)(C)C(C)(C)C` (mixture of isomers), the CC50 at 72 h in series [7] was more than 100 µM. The IC50 in series [8] worked out at 10.7 µM. The compound `CCOC(=O)c1c(C)n(C)c2ccc(OCCCOc3ccc(C(=O)/C=C/c4ccc(C)cc4)cc3)cc12` showed an EC50 with Tobacco mosaic virus of 107 µg/mL (≈ 210 µM). On to `COc1ccc([C@H]2N(Nc3ccc([N+](=O)[O-])cc3)C(=O)C3Cc4ccccc4N32)cc1O[Si](C)(C)C(C)(C)C` (mixture of isomers), for which the CC50 at 72 h in series [7] was more than 100 µM. In [8], half-maximal inhibition (IC50) was put at 9.89 µM.

On to `CCc1ccc(S(=O)(=O)n2cc(C(=O)CCc3nnc(-c4ccccc4)o3)c3ccc(C)cc32)cc1`, for which the concentration giving a half-maximal response (EC50) in [16] was 4.62 µM. Moreover, the CC50 in the series with C8166 was more than 469 µM. Regarding `O=C1C(=O)N(Cc2cccc3ccccc23)c2ccc(Br)cc21`, the EC50 (in [17]; in the series with SARS-CoV-2 [18]) was 6.8 µM throughout. With `Cc1cncc(C#Cc2c[nH]c3ncc(-c4ccc(C(=O)NC5CC5)cc4)cc23)c1`, the EC50 came to 0.18 µM in series [19], 1.8 µM in [20] and 1.82 µM in the series on SARS-CoV-2 [21].

With `CCOc1ccc(C2=NN(C(N)=S)C(C3CN(Cc4ccc(C(F)(F)F)cc4)c4ccccc43)C2)cc1F` (configuration not stated), the EC50 in the series with Potato virus Y stood at 202 µg/mL (≈ 372 µM). On to `CN1C(=O)/C(=N\NC(=S)Nc2ccc(S(N)(=O)=O)cc2)c2cc(Br)ccc21`, for which the EC50 in the series with Sindbis virus is more than 2 µM. Turning to `O=C(O)/C(O)=C/C(=O)c1cn(S(=O)(=O)C(=O)c2ccc(F)cc2)c2ccc(Br)cc12`, the IC50 in series [22] was determined as 0.2 µM.

As to `CCc1ccc(S(=O)(=O)n2cc(C(=O)CN3CCOCC3)c3ccc(C)cc32)cc1`, in [16], the EC50 amounted to 9.42 µM. In the series on SARS-CoV-2 [13], `O=C(NCCc1ccc(N2CCCC2)cc1)c1[nH]c2ccc(Cl)cc2c1CO` showed an IC50 of 3.42 µM. Consider `COc1cccc2[nH]c(C(=O)N[C@@H](CC(C)C)C(=O)N[C@@H](C[C@@H]3CCNC3=O)C(=O)c3nc4ccccc4s3)cc12`, for which the CC50 at 72 h in [12] is more than 100 µM. `O=C1C(=O)N(Cc2ccc3ccccc3c2)c2ccccc21`: the IC50 in the series with Zika virus came out at 0.32 µM. Regarding `CC1CCCC2(C1)SCCN2NC(=O)c1[nH]c2ccc(S(N)(=O)=O)cc2c1-c1ccccc1` (configuration not stated), in the series with Human respirovirus 1, the Activity was determined as 95.46%. Consider `Cc1ccc(S(=O)(=O)n2cc(C(=O)/C=C3\OC(C)(C)OC3=O)c3cc(Br)ccc32)cc1`, for which the IC50 in [22] was determined as 5.7 µM.

Turning to `NS(=O)(=O)c1ccc(NC(=S)N/N=C2\C(=O)Nc3ccc(Br)cc32)cc1`, the concentration for a half-maximal effect (EC50) with Sindbis virus is 3 µM.
